Assay results reported in patent publication US20130338092A1, “COMPOUNDS AND METHODS FOR TARGETING LEUKEMIC STEM CELLS” (The Broad Institute, Inc., priority 2011, published 2013).
“Also recorded” adds a separate entry of the source. Like-named read-outs stand apart in the source and are kept apart here. Blank lines part the entries; values can stand above or below the compound they belong to.

Columns and labels:
[1] = tested on: normal primary human CD34+ cells; test: Alamar Blue assay for human progenitor cell toxicity; settings: for IC50: read-out: Normal Progenitor* IC50
Experimental: Normal G-CSF mobilized CD34+ cells (AllCells, LLC, Emeryville, Calif.), normal BM CD34 cells (MSKCC, New York, N.Y.) and cord blood CD34+ cells (New York Blood Center, New York) were previously frozen and thawed out before the proliferation assay was set up in 384-well plates. Briefly, 50 μl of IMDM medium containing 20% FBS (Gemini Bio-Product, West Sacramento, Calif.), 20 ng/ml of recombinant human Kit Ligand (rhKL), 20 ng/ml of rh-Interleukin-3 (rhIL-3), 20 ng/ml of rhG-CSF, 6 units/ml of rhEPO, 10-42-mercaptoethanol, 2 mM glutamine, 50 u/ml penicillin, 50 μg/ml streptomycin, 1,000 viable CD34+ cells in the presence of various doses of Broad compounds (drug-treated group) or 0.1% DMSO (control group) were incubated at 37° C. After 6 days, 5 μl of AlamaBlue (AbD Serotec, Raleigh, N.C.) was added to each well and further incubated overnight. The fluorescence signal was then measured with GeminiXS microplate reader (Molecular Devices, Sunnyvale, Calif.). Effect of small molecules to proliferation of CD34+ cells was reported as Relative fluorescent intensity (Relative Fluorescent Intensity=Fluorescent Intensity (drug-treated)/Fluorescent Intensity (Control).
Finally, experiments were performed to examine whether BRD7116 or lovastatic acid were likely to cause myelosuppression, a type of deleterious toxicity in patients resulting from harm to normal human hematopoietic progenitor cells. This consideration is especially important as conventional therapies currently used in the clinic have myelosuppressive toxicities that are dose-limiting. To this end, a hematopoietic progenitor assay was employed to compare the effects of BRD7116 and lovastatic acid to effects given by such known myelosuppressive compounds. In this assay, normal primary human CD34^+ cord blood cells were plated with cytokines in suspension, treated with compound for 7 days, and then examined for viability relative to DMSO treated controls.

normal murine HSPCs = test: Triple coculture (LSCs and HSPCs on primary MSCs), normal HSPCs; settings: read-out: Normal HSPC* IC50
Experimental: (§1) As in the original assay approach, treatment of these triple cocultures began one day after hematopoietic cell plating and was assessed 5 days later.
(§2) An in vitro therapeutic index was determined for each compound, a comparative measure of the potential for anti-LSC efficacy relative to the potential for dose-limiting toxicities to normal HSCs (myeloablation), or to normal progenitors (myelosuppression). Specifically, ratios were created using the IC50s for primary murine HSPCs in triple coculture as the numerator, and the IC50s for primary murine leukemia inhibition in triple coculture as the denominator, toward assessing the potential for HSC harm relative to LSC inhibition.

MLL-AF9 LSC = test: Triple coculture (LSCs and HSPCs on primary MSCs), leukemia cells; format: cell-based, murine; settings: murine LSCs in triple coculture with HSPCs on MSCs
Experimental: as §1, §2

[2] = tested on: LSC-enriched leukemia cells (MLL-AF9); test: Leukemia coculture assay on primary MSC stroma (cobblestoning readout); format: cell-based, murine; settings: for leukemia-selective activity in coculture vs normal HSPCs: primary MSC stroma
Experimental: Whole bone marrow were harvested from C57/B16 actin-dsRed mice (006051, Jackson Labs), subjected to red blood cell lysis (Qiagen), then granulocyte-macrophage progenitors (GMPs) were isolated by Fluorescence-activated cell sorting (FACsAria, Becton Dickinson). GMPs were spinfected twice (2500 rpm, 90 min, 37 C) in the presence of mIL3 (10 ng/ml, Peprotech), mIL6 (10 ng/ml, Peprotech), and mSCF (10 ng/ml, Peprotech) with pMSCV-MLL-AF9-Neo virus then transplanted into lethally irradiated C57/B16 recipients. After disease onset, the spleens were harvested and transplanted into sublethally irradiated secondary recipients. Subsequent transplantation of bulk spleen cells from leukemic secondary mice was repeated twice to generate leukemic GMPs from quaternary transplant leukemic mouse bone marrow.
Long bones and hips from moribund leukemic mice were harvested, cleaned, crushed and sequentially passed through 100 and 70 μM filters (Falcon). The cells were RBC lysed (Qiagen) and stained in PBS+2% FBS (Omega). Antibodies included lineage markers CD4, CD8, Gr1, Mac1, IL-7R, and Ter119 (Caltag), c-kit (17-1172-83, eBioscience), Sca-1 (11-5981-82, eBioscience), CD34 (11-0341-85, eBioscience), and CD16/32 (25-0161-82, eBioscience). Hoechst 33258 (H21491, Invitrogen) was also used, to identify live cells. Cells were sorted on a FacsAria II (Becton Dickinson).
The humerii, tibiae, ilia, femurs, and spine were isolated from actin-GFP mice (000329, Jackson Lab) crushed using a mortar and pestle, washed in phosphate-buffered saline (PBS) without magnesium and calcium (Gibco) with 0.5% fetal bovine serum (FBS) (HyClone) and filtered through a 70-μm filter. Red blood cell lysis was performed with ammonium-chloride/potassium-chloride (ACK) lysing buffer (Lonza), the cells were resuspended in α-MEM (StemCell Technologies), 20% FBS (HyClone) and 1× Pen-Strep (CellGro), plated in 25 ml in 150-cm^2 tissue-culture flasks (three per mouse), and incubated at 33° C. with 5% CO2. After 2-3 days, the medium was replaced with fresh α-MEM with 20% FBS. After 8-14 days, the cells were rinsed, split by trypsinization (CellGro), pooled, filtered through a 70 μm filter, replated at 3-4 million cells per 150-cm^2 tissue-culture flask, and grown at 33° C. with 5% CO2 for 3-4 days until nearly confluent. The cells were trypsinized, filtered, and resuspended in 0.5% FBS in PBS with biotin-conjugated anti-mouse CD105 antibody (eBioscience) for 15-30 minutes at room temperature. The CD105-labeled cells were incubated with Dynabead M-280 streptavidin-linked magnetic beads (Invitrogen) for 15-30 minutes at 4° C. with agitation and isolated using magnetic separation and rinsed once. The CD105^+ cell fraction was replated at 1-2 million cells per 150-cm^2 tissue-culture flask and incubated at 33° C. with 5% CO2 for 2-3 days.
The MSCs were trypsinized, filtered, diluted in phenol-red-free alpha-MEM with 20% FBS, and plated (30 μl for a total of 2000 cells per well) on 384-well clear-bottomed black tissue-culture treated plate (3712, Corning) pretreated with fibronectin (Millipore). Plate covers (VWR) were added, the plates were spun and at 500 with slow braking, and the cells were incubated at room temperature for 60-90 minutes before incubation at 33° C. with 5% CO2 for 3 days prior to hematopoietic cell plating. […]

normal HSPCs = test: Normal HSPC coculture on primary MSC stroma
Experimental: The material was cleaned, crushed and sequentially passed through 100 and 70 μM filters (Falcon). […] The biotin-labeled cells were spun down, resuspended in 0.5% FBS in PBS, and incubated for 15-30 minutes at 4° C. with agitation with 1 mL of Dynabead M-280 streptavidin-linked magnetic beads per 4 mice. The bead-linked cells were depleted using magnetic separation and rinsed once. The lineage- and CD48-depleted cell fraction was labeled with streptavidin-APC-Cy7 antibody from BD Biosciences and c-kit-APC, Sca-1-FITC, CD48-Pacific Blue, and CD150 PE-Cy7 antibodies from eBioscience. DsRed-positive lineage-Sca-1+c-kit+CD48− HSCs were sorted using a FACS DiVa or FACS ARIA (BD Biosciences).
A total of 20 μL of 20 μg/mL fibronectin (Millipore) in PBS was added to each well of a 384-well clear-bottomed black tissue-culture treated plate (Corning) and incubated for 30-120 minutes at 33° C. or 37° C. […] The fibronectin solution was removed from each well using a 24-channel wand aspirator; then 30 μL of BMSC solution was added to plate 2000 BMSCs/well. […] Each plate was covered with a sterile rayon breathable membrane (VWR) and plastic lid, and then spun at 500 rpm (approximately 60× gravity) with slow braking. The plates were incubated at room temperature for 60-90 minutes before incubation at 33° C. with 5% CO2 for 3 days prior to HSC addition.
The sorted HSCs, SLAMs and progenitor cells were resuspended in phenol-red free alpha-MEM with 20% FBS and diluted to 10,000 cells/mL. A total of 20 μL of cell solution containing 200 hematopoietic cells was added to each well using a multichannel pipettor or liquid-dispensing system. Each plate was covered with a sterile rayon breathable membrane (VWR) and plastic lid, and then spun at 500 rpm (approximately 60×gravity) with slow braking. The plates were incubated at room temperature for 60-90 minutes before incubation at 33° C. with 5% CO2 overnight prior to compound or cytokine addition.
Image analysis was performed using MetaXpress software from MDC and CellProfiler software from the Broad Institute of Harvard and MIT.
Compound addition and incubation was performed as described for the LSC coculture screen above, but without a media change or readdition of the compound.
The selected set was screened in 8-point dose against both normal HSPCs with a high number of replicates (6) and LSC-enriched leukemia cells, each cocultured on primary MSCs.

[3] = Mus musculus, MLL-AF9, statins (acid form), LSCs cocultured on primary MSC stroma, read-out: Leukemia IC50
[4] = Mus musculus, read-out: Normal IC50, statins (acid form), HSPCs cocultured on primary MSC stroma
[5] = Mus musculus, MLL-AF9, LSCs on primary MSC stroma, 8-point dose, read-out: Leukemia IC50
[6] = Mus musculus, read-out: Normal IC50, HSPCs on primary MSC stroma, 8-point dose

Compound: Nc1ccn([C@@H]2O[C@H](CO)[C@@H](O)[C@@H]2O)c(=O)n1 [Ara-C]
toxicity to hematopoietic progenitor cells ([1]; 7 days of exposure, viability relative to DMSO): kill progenitors; also recorded: displayed toxicity
IC50 ([1]; normal human hematopoietic progenitors, 7 days): 2500 nM
IC50 (normal murine HSPCs; normal murine HSPCs in triple coculture with LSCs on primary MSCs): 5000 nM
IC50 (MLL-AF9 LSC): 2500 nM

IC50 [2, 3]: 27.9 nM
Compound: CC(C)n1c(/C=C/C(O)CC(O)CC(=O)O)c(-c2ccc(F)cc2)c2ccccc21 (stereo not drawn) [Fluvastatin]
IC50 (normal HSPCs; [4]): > 20000 nM

IC50 [2, 3]: ≤ 15 nM
Compound: CCC(C)(C)C(=O)O[C@H]1C[C@@H](C)C=C2C=C[C@H](C)[C@H](CC[C@@H]3C[C@@H](O)CC(=O)O3)[C@H]21 [Simvastatin]
IC50 (normal HSPCs; [4]): > 20000 nM

Compound: COc1cccc2c1C(=O)c1c(O)c3c(c(O)c1C2=O)C[C@@](O)(C(C)=O)C[C@@H]3O[C@H]1C[C@H](N)[C@H](O)[C@H](C)O1 [Daunorubicin]
IC50 ([1]; Homo sapiens, 168 h): 20 nM
IC50 (normal murine HSPCs; Mus musculus): 50 nM

IC50 [2, 5]: 7500 nM
Compound: C=C1C(=O)O[C@@H]2[C@H]3O[C@]3(C)CC/C=C(\C)CC[C@@H]12 [Parthenolide]
IC50 (normal HSPCs; [6]): > 20000 nM

IC50 [2, 3]: ≤ 1900 nM
Compound: CC(C)c1c(C(=O)Nc2ccccc2)c(-c2ccccc2)c(-c2ccc(F)cc2)n1CC[C@@H](O)C[C@@H](O)CC(=O)O [Atorvastatin]
leukemia-selective activity in coculture vs normal HSPCs [2]: selectively inhibited leukemia cobblestoning
IC50 (normal HSPCs; [4]): > 20000 nM

IC50 [2, 5]: 2140 nM
Compound: C[C@@H]1CN([C@@H](C)CO)C(=O)c2cccc(NC(=O)Nc3ccccc3)c2O[C@@H]1CN(C)Cc1ccc(C(=O)Nc2ccccc2N)cc1 [BRD6708]
IC50 (normal HSPCs; [6]): > 20000 nM

IC50 [2, 5]: ≤ 10 nM
Compound: CC[n+]1c(/C=C2/C=C(C)CC(C)C2)sc2ccccc21 (stereo not drawn) [BRD1319]
IC50 (normal HSPCs; [6]): > 20000 nM

IC50 [2, 5]: 77 nM
Compound: COc1cc2c(cc1O)CC[C@@H]1[C@@H]2CC[C@]2(C)[C@@H](O)CC[C@@H]12 [2-Methoxy estradiol]
leukemia-selective activity in coculture vs normal HSPCs [2]: displayed leukemia selectivity
IC50 (normal HSPCs; [6]): > 20000 nM

IC50 [2, 5]: 149 nM
Compound: COc1cc2c(cc1OC)-c1c(C#N)c(-c3ccc(C)cc3)c(C(=O)c3cccs3)n1CC2 [BRD8404]
IC50 (normal HSPCs; [6]): > 20000 nM

IC50 [2, 5]: 1420 nM
Compound: CCOc1ccccc1NC(=O)C(C)Oc1ccc(OC)cc1 (stereo not drawn) [BRD1686]
IC50 (normal HSPCs; [6]): > 20000 nM

IC50 [2, 5]: ≤ 10 nM
Compound: CC[n+]1c(/C=C2\C=C(C)CC(C)(C)C2)oc2ccccc21 [BRD0638]
IC50 (normal HSPCs; [6]): > 20000 nM

Compound: c1cc(CN2CCCNCCNCCCNCC2)ccc1CN1CCCNCCNCCCNCC1 [AMD3100]
leukemia-selective activity in coculture vs normal HSPCs [2]: showed selectivity for LSCs over HSPCs

IC50 [2, 3]: < 10 nM
Compound: COCc1c(C(C)C)nc(C(C)C)c(/C=C/[C@@H](O)C[C@@H](O)CC(=O)O)c1-c1ccc(F)cc1 [Cerivastatin]
IC50 (normal HSPCs; [4]): > 20000 nM

IC50 [2, 5]: 699 nM
Compound: C[C@@H]1CN([C@@H](C)CO)C(=O)c2cccc(NC(=O)C3CCCCC3)c2O[C@@H]1CN(C)Cc1ccc(C(=O)Nc2ccccc2N)cc1 [BRD9608]
IC50 (normal HSPCs; [6]): ~20000 nM

Compound: COc1cc(/C=C/C(=O)N2CCC=CC2=O)cc(OC)c1OC [Piperlongumine]
IC50 ([2]; Mus musculus, MLL-AF9, read-out: Leukemia IC50): 379 nM
IC50 (normal HSPCs; Mus musculus, read-out: Normal IC50): ~20000 nM

IC50 ([2]; statins (acid form), LSCs cocultured on primary MSC stroma, read-out: Leukemia IC50): 1220 nM
Compound: CC(C)c1nc(N(C)S(C)(=O)=O)nc(-c2ccc(F)cc2)c1/C=C/[C@@H](O)C[C@@H](O)CC(=O)O [Rosuvistatin]
leukemia-selective activity in coculture vs normal HSPCs [2]: selectively inhibited leukemia cobblestoning
IC50 (normal HSPCs; read-out: Normal IC50, statins (acid form), HSPCs cocultured on primary MSC stroma): > 20000 nM

IC50 [2, 5]: 813 nM
Compound: O=C(c1ccccc1)c1cc[n+](Cc2ccccn2)cc1 [BRD1856]
IC50 (normal HSPCs; [6]): > 20000 nM

Compound: Celastrol
IC50 ([2]; LSCs on primary MSC stroma, 8-point dose, read-out: Leukemia IC50): 102 nM
IC50 (normal HSPCs; read-out: Normal IC50, HSPCs on primary MSC stroma, 8-point dose): > 20000 nM
